Test results from patent US9364467B2 (Salix Pharmaceuticals, Ltd, priority 2012, dated 2016).
Values after ≈ are worked out from the molar mass of the structure shown. Like-named read-outs stand apart in the source and are kept apart here.

What was measured:
[1] = system: S. aureus; experiment: In vitro activity (MIC) against S. aureus strains; conditions: Staphylococcus aureus
[2] = system: Enterobacteriaceae spp. strains; experiment: In vitro activity (MIC) against Enterobacteriaceae spp. strains

COC1/C=C/O[C@@]2(C)Oc3c(C)c(O)c4c(O)c(c5c(c4c3C2=O)NC2C=C(C)C=CN52)NC(=O)/C(C)=C\C=C\C(C)C(O)C(C)C(O)C(C)C(O)C1C (stereo partly shown) [25-desacetyl rifaximin]
MIC ([1]; strain ATCC S. aureus 29213): 0.5 µg/mL (≈ 0.67 µM)
MIC ([1]; strain S. aureus 215): 16 µg/mL (≈ 21.5 µM)
MIC ([1]; strain S. aureus 234): 2 µg/mL (≈ 2.68 µM)
MIC ([1]; strain S. aureus 236): 16 µg/mL (≈ 21.5 µM)
MIC ([1]; strain S. aureus 237): 2 µg/mL (≈ 2.68 µM)
MIC ([1]; strain S. aureus 238): 0.25 µg/mL (≈ 0.335 µM)
MIC ([1]; strain S. aureus 246): 2 µg/mL (≈ 2.68 µM)
MIC ([1]; strain S. aureus 252): 4 µg/mL (≈ 5.36 µM)
MIC ([1]; strain S. aureus 253): 1 µg/mL (≈ 1.34 µM)
MIC ([1]; strain S. aureus 267): 16 µg/mL (≈ 21.5 µM)
MIC ([1]; strain S. aureus 272): 2 µg/mL (≈ 2.68 µM)
MIC ([1]; strain S. aureus 279): 0.25 µg/mL (≈ 0.335 µM)
MIC ([1]; strain S. aureus 327): 4 µg/mL (≈ 5.36 µM)
MIC ([1]; strain S. aureus 328): 2 µg/mL (≈ 2.68 µM)
MIC ([1]; strain S. aureus 329): 4 µg/mL (≈ 5.36 µM)
MIC ([1]; strain S. aureus 339): 16 µg/mL (≈ 21.5 µM)
MIC ([1]; strain S. aureus 345): 2 µg/mL (≈ 2.68 µM)
MIC ([1]; strain S. aureus 355): 2 µg/mL (≈ 2.68 µM)
MIC ([1]; strain S. aureus 406): > 16 µg/mL
MIC ([1]; strain S. aureus 408): 2 µg/mL (≈ 2.68 µM)
MIC ([1]; strain S. aureus 409): 1 µg/mL (≈ 1.34 µM)
MIC ([1]; strain S. aureus 416): 2 µg/mL (≈ 2.68 µM)
MIC ([1]; strain S. aureus 425): > 16 µg/mL
MIC ([1]; strain S. aureus 436): 2 µg/mL (≈ 2.68 µM)
MIC ([1]; strain S. aureus 475): 4 µg/mL (≈ 5.36 µM)
MIC [2]: 128 µg/mL (≈ 172 µM)
MIC50 [2]: 128 µg/mL (≈ 172 µM)
MIC90 [2]: 256 µg/mL (≈ 343 µM)
MIC ([2]; Citrobacter freundii, C. freundii 57): 128 µg/mL (≈ 172 µM)
MIC ([2]; Citrobacter freundii, C. freundii 58): 128 µg/mL (≈ 172 µM)
MIC ([2]; Citrobacter freundii, C. freundii 65): 128 µg/mL (≈ 172 µM)
MIC ([2]; Citrobacter freundii, C. freundii 68): 256 µg/mL (≈ 343 µM)
MIC ([2]; Citrobacter freundii, C. freundii 69): 128 µg/mL (≈ 172 µM)
MIC ([2]; Citrobacter freundii, C. freundii 1070): 128 µg/mL (≈ 172 µM)
MIC ([2]; Citrobacter freundii, C. freundii 1073): 256 µg/mL (≈ 343 µM)
MIC ([2]; Citrobacter freundii, C. freundii 1075): 128 µg/mL (≈ 172 µM)
MIC ([2]; Enterobacter cloacae, E. cloacae 1): 128 µg/mL (≈ 172 µM)
MIC ([2]; Enterobacter cloacae, E. cloacae 3): 128 µg/mL (≈ 172 µM)
MIC ([2]; Enterobacter cloacae, E. cloacae 8): 256 µg/mL (≈ 343 µM)
MIC ([2]; Enterobacter cloacae, E. cloacae 12): 128 µg/mL (≈ 172 µM)
MIC ([2]; Enterobacter cloacae, E. cloacae 13): 128 µg/mL (≈ 172 µM)
MIC ([2]; Enterobacter cloacae, E. cloacae 14): 128 µg/mL (≈ 172 µM)
MIC ([2]; Enterobacter cloacae, E. cloacae 16): 128 µg/mL (≈ 172 µM)
MIC ([2]; Enterobacter cloacae, E. cloacae 20): 128 µg/mL (≈ 172 µM)
MIC ([2]; Enterobacter cloacae, E. cloacae 321): 128 µg/mL (≈ 172 µM)
MIC ([2]; Enterobacter cloacae, E. cloacae 348): 256 µg/mL (≈ 343 µM)
MIC ([2]; Enterobacter cloacae, E. cloacae 349): 128 µg/mL (≈ 172 µM)
MIC ([2]; Enterobacter cloacae, E. cloacae 358): 128 µg/mL (≈ 172 µM)
MIC ([2]; Enterobacter cloacae, E. cloacae 367): 128 µg/mL (≈ 172 µM)
MIC ([2]; Enterobacter cloacae, E. cloacae 369): 256 µg/mL (≈ 343 µM)
Range (MIC) ([2]; Enterobacteriaceae spp. strains): 128 to 256 µg/mL
MIC ([2]; Escherichia coli, ATCC E. Coli 25922): 128 µg/mL (≈ 172 µM)
MIC ([2]; Escherichia coli, E. coli 6): 128 µg/mL (≈ 172 µM)
MIC ([2]; Escherichia coli, E. coli 15): 128 µg/mL (≈ 172 µM)
MIC ([2]; Escherichia coli, E. coli 34): 128 µg/mL (≈ 172 µM)
MIC ([2]; Escherichia coli, E. coli 37): 128 µg/mL (≈ 172 µM)
MIC ([2]; Escherichia coli, E. coli 41): 128 µg/mL (≈ 172 µM)
MIC ([2]; Escherichia coli, E. coli 43): 128 µg/mL (≈ 172 µM)
MIC ([2]; Escherichia coli, E. coli 44): 256 µg/mL (≈ 343 µM)
MIC ([2]; Escherichia coli, E. coli 46): 128 µg/mL (≈ 172 µM)
MIC ([2]; Escherichia coli, E. coli 47): 128 µg/mL (≈ 172 µM)
MIC ([2]; Escherichia coli, E. coli 48): 256 µg/mL (≈ 343 µM)
MIC ([2]; Escherichia coli, E. coli 49): 128 µg/mL (≈ 172 µM)
MIC ([2]; Escherichia coli, E. coli 56): 128 µg/mL (≈ 172 µM)
MIC ([2]; Escherichia coli, E. coli 62): 128 µg/mL (≈ 172 µM)
MIC ([2]; Escherichia coli, E. coli 71): 128 µg/mL (≈ 172 µM)
MIC ([2]; Escherichia coli, E. coli 90): 128 µg/mL (≈ 172 µM)
MIC ([2]; Escherichia coli, E. coli 92): 128 µg/mL (≈ 172 µM)
MIC ([2]; Escherichia coli, E. coli 93): 256 µg/mL (≈ 343 µM)
MIC ([2]; Escherichia coli, E. coli 95): 128 µg/mL (≈ 172 µM)
MIC ([2]; Escherichia coli, E. coli 96): 128 µg/mL (≈ 172 µM)
MIC ([2]; Escherichia coli, E. coli 97): 128 µg/mL (≈ 172 µM)
MIC ([2]; Escherichia coli, E. coli 100): 128 µg/mL (≈ 172 µM)
MIC ([2]; Escherichia coli, E. coli 102): 128 µg/mL (≈ 172 µM)
MIC ([2]; Escherichia coli, E. coli 103): 128 µg/mL (≈ 172 µM)
MIC ([2]; Escherichia coli, E. coli 109): 128 µg/mL (≈ 172 µM)
MIC ([2]; Escherichia coli, E. coli 110): 256 µg/mL (≈ 343 µM)
MIC ([2]; Escherichia coli, E. coli 112): 128 µg/mL (≈ 172 µM)
MIC ([2]; Escherichia coli, E. coli 113): 128 µg/mL (≈ 172 µM)
